Data reported in patent US8618079B2, “Imidazo[1,2-a] pyridinyl bisphosphonates” (Isis Innovation Limited, priority 2008, dated 2013).

Assays:
[1] = target: T1, human farnesyl pyrophosphate synthase (FPPS) (Homo sapiens, UniProt P14324); experiment: FPPS inhibition; format: biochemical; details: recombinant human FPPS; for IC50: after pre-incubation; for Ki: read-out: FPPS inhibition Ki (final inhibition constant)
T1 construct: made in house
T1 sequence (P14324 67-419 limits assumed): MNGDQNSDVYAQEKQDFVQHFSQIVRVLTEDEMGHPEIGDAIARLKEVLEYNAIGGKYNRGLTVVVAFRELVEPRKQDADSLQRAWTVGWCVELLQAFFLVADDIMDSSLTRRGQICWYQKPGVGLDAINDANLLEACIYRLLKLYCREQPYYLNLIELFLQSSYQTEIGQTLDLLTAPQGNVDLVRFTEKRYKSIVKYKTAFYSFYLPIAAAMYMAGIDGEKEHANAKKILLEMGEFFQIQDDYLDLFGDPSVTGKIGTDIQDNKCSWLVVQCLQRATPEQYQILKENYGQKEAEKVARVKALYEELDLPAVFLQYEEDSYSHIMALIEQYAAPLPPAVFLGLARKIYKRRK

[2] = test system: Sprague Dawley rats; experiment: Schenk model, in vivo bone resorption inhibition (tibial BMD); details: rat, subcutaneous once daily for 7 days; dose increasing proximal tibial BMD 20% over control
Procedure: The compounds were evaluated for in vivo bone resorption inhibition and mineralization inhibition in an animal model system known in the field of bone metabolism as the Schenk Model. The general principles of this model system are disclosed in Shinoda et al., Calcif. Tissue Int., 35: 87-99 (1983); and in Schenk et al., Calcif. Tissue Res. 11: 196-214 (1973), the disclosures of which are incorporated herein by reference in their entireties.
Animals: Weanling male Sprague Dawley rats (Charles River Breeding Laboratories, Raleigh, N.C.) approximately 6 weeks old with weights ranging between 120 and 150 grams were placed into groups based on body weight, with 6 animals per group. All groups received treatment by subcutaneous injection (SQ) once daily (QD) for 7 days.
Dose Solutions and Dosing Procedure: On day 0, all animals received an injection of 3% xylenol orange (90 mg/kg; Sigma) in normal saline, pH adjusted to 7.4. On day 4 all animals were given a subcutaneous injection of 1% Calcein (10 mg/kg, Sigma) in 0.9% NaCl solution to label the skeleton. The first treatment was on day 0, and the last treatment on day 6, with animals euthanized on day 7. Concentrations were based on dosing 0.2 ml/100 g body weight. Compounds were administered at doses ranging from 0.0001 to 1 mg P/kg/day for 7 days at semi-log doses. The dose range was based on the IC 50 in the FPPS inhibition assay, and on the affinity to hydroxyapatite (HAP Affinity). Three to seven doses were chosen per test compound. Adjustments in dosage based on changes in body weight were made on a daily basis.
Necropsy, Tissue Processing and Histomorphometry: On day 7 after the start of dosing, all animals were euthanized via exsanguination under gas anesthesia and/or CO2. The right tibia and femur were dissected free and placed in 70% ethyl alcohol. The proximal metaphysis of the right tibia was analyzed using dual energy x-ray analysis (DXA). This provides information on changes in both cortical and cancellous bone density. The primary end-point for this study was bone mineral density in the tibia measured using a Hologics QDR-4500 densitometer (Hologics, Inc). Statistical evaluation of data was made using parametric and non-parametric analysis of variance and Wilcoxon's rank sum test to determine a statistically significant effect compared to control animals.
The Schenk model provided data for in vivo bone resorption inhibition by the compounds, see Table 3. Bone mineral density (BMD) was assessed with a Hologics 4500A on a region of the proximal tibial metaphysic. Efficacy of each bisphosphonate was expressed as the percent change from the vehicle control group. The dose that increased bone mineral density (BMD) 20% greater than control was determined via a logistic dose response relationship (SAS), which estimates an efficacy value using all animals in the study, and identified as D20 for comparison of bisphosphonates across studies. (Lundy et al., J. Bone Min. Res. 22(Suppl 1): S443, (2007)). Data from compounds run in multiple studies was averaged.

[3] = Hydroxyapatite (HAP) affinity, chromatographic retention on HAP column; format: physicochemical; details: phosphate buffer gradient 1 mM to 1000 mM, pH 6.8, longer retention = higher mineral affinity
[4] = test system: collagen induced arthritis (CIA) rat; experiment: Collagen induced arthritis (CIA) rat model, bone resorption scores; format: in vivo
Procedure: The collagen induced arthritis (CIA) rat model is an in vivo model that provides for an evaluation of the inhibition of inflammation as well as inhibition of bone erosion. The study was performed according to the method of Bendele et al., Arthritis & Rheumatism, 43: 2648-2659 (2000), incorporated herein by reference in its entirety, with the exception that male animals were used instead of female animals.
Arthritis was induced in rats by injecting collagen on days 0 and 6. The bisphosphonate compound of Example 4 (1-fluoro-2-(imidazo-[1,2-α]pyridin-3-yl)-ethyl-bisphosphonic acid) was administered at four different dosages (1.57 μg/kg, 15.69 μg/kg, 156.9 μg/kg, and 523.0 μg/kg; n=10/group) by subcutaneous injection on day 0, and compared to vehicle control (n=10). An additional group was administered 10 mg/kg Enbrel® (n=10) on days 9, 12, and 15 as a positive control. The study was stopped on day 17 and the animals were evaluated for ankle thickness and paw weight, indices of inflammation. The ankle and knees were removed as one piece, placed in formalin, decalcified and processed for histology. Sections were stained with toluidine blue and graded for inflammation, pannus and cartilage degradation on a score of 0 (normal) to 5 (severe). Bone erosion was also scored in the ankle and knee on a 0-5 score.

Compound	IC50 [1] [nM]	Ki [1] [nM]	HAP Affinity Retention time [3] [min]	Schenk D20 (mg P/kg) 20% > BMD than control [2] [mg P/kg]	ankle bone resorption score, dose response ([4]; single subcutaneous injection day 0, 1.57-523.0 μg/kg, scored day 17 (FIG. 9))	knee bone resorption score, dose response ([4]; single subcutaneous injection day 0, 1.57-523.0 μg/kg, scored day 17 (FIG. 10))	knee bone resorption score, decrease relative to vehicle ([4]; three highest dosage levels (15.69 μg/kg, 156.9 μg/kg and 523.0 μg/kg), p=0.05 (FIG. 10))	ankle bone resorption score, decrease relative to vehicle ([4]; two highest dosage levels (156.9 μg/kg and 523.0 μg/kg), p=0.05 (FIG. 9))
O=P(O)(O)C(O)(Cn1ccnc1)P(=O)(O)O [Zoledronate, reference compound]	–	–	12.53	0.00008	–	–	–	–
Cc1ccc2ncc(CC(P(=O)(O)O)P(=O)(O)O)n2c1 [compound 81, 2-(6-methylimidazo-[1,2-α]pyridin-3-yl)-ethyl-bisphosphonic acid]	380	64	6.6	–	–	–	–	–
O=P(O)(O)C(O)(Cc1cnc2ccccn12)P(=O)(O)O [Minodronate, reference compound]	–	–	10.33	0.0001	–	–	–	–
CCc1nc2ccccn2c1CC(P(=O)(O)O)P(=O)(O)O [compound 75, [(2-ethyl-imidazo[1,2-α]pyridin-3-yl)-methyl]-bisphosphonic acid]	27	2.5	4.83	–	–	–	–	–
O=P(O)(O)C(Cc1cnc2c(O)cccn12)P(=O)(O)O [compound 40, [2-(8-hydroxy-imidazo[1,2-α]pyridin-3-yl)-1-ethane]-bisphosphonic acid]	893	151	5.3	–	–	–	–	–
NCCCC(O)(P(=O)(O)O)P(=O)(O)O [Alendronate, reference compound]	–	–	–	0.0015	–	–	–	–
O=P(O)(O)C(O)(Cc1cccnc1)P(=O)(O)O [Risedronate, reference compound]	–	–	9.97	0.00045	–	–	–	–

Now from value to compound, other results behind:

IC50 [1] [nM]	Ki [1] [nM]	HAP Affinity Retention time [3] [min]	Compound	Schenk D20 (mg P/kg) 20% > BMD than control [2] [mg P/kg]	ankle bone resorption score, dose response ([4]; single subcutaneous injection day 0, 1.57-523.0 μg/kg, scored day 17 (FIG. 9))	knee bone resorption score, dose response ([4]; single subcutaneous injection day 0, 1.57-523.0 μg/kg, scored day 17 (FIG. 10))	knee bone resorption score, decrease relative to vehicle ([4]; three highest dosage levels (15.69 μg/kg, 156.9 μg/kg and 523.0 μg/kg), p=0.05 (FIG. 10))	ankle bone resorption score, decrease relative to vehicle ([4]; two highest dosage levels (156.9 μg/kg and 523.0 μg/kg), p=0.05 (FIG. 9))
2.59	0.013	6.6	O=P(O)(O)C(Cc1cnc2ccccn12)P(=O)(O)O [compound 80, 2-(imidazo-[1,2-α]pyridin-3-yl)-ethyl-bisphosphonic acid]	0.0006	–	–	–	–
106	17.5	6.3	O=P(O)(O)C(Cc1cnc2ccc(F)cn12)P(=O)(O)O [compound 34, [2-(6-fluoro-imidazo[1,2-α]pyridin-3-yl)-ethyl]-bisphosphonic acid]	–	–	–	–	–
39.7	6.1	6.6	Cc1ccn2c(CC(P(=O)(O)O)P(=O)(O)O)cnc2c1 [compound 15, 2-(7-methyl)-imidazo-[1,2-α]pyridin-3-yl-ethyl-bisphosphonic acid]	0.008	–	–	–	–
2.46	0.014	6.17	O=P(O)(O)C(F)(Cc1cnc2ccccn12)P(=O)(O)O [compound 23, 1-fluoro-2-(imidazo-[1,2-α]pyridin-3-yl)-ethyl-bisphosphonic acid]	0.0003	dose-dependent decrease in bone resorption	dose dependent decrease in bone resorption	statistically different	statistically different
60.3	9.6	6.2	Cc1ccn2c(CC(F)(P(=O)(O)O)P(=O)(O)O)cnc2c1 [compound 11, 1-fluoro-2-(7-methyl)-imidazo-[1,2-α]pyridin-3-yl-ethyl-bisphosphonic acid]	0.002	–	–	–	–
